According to US10932480B2, “Animal feed additive containing diurnosid and/or cestrumosid” (priority 2016, dated 2021):

System: broilers
Assay: Field test in broilers, diurnoside/cestrumoside plus vitamin D3 metabolites (Example 1)
Assay type: in vivo
Settings: in combination with diurnoside or cestrumoside versus control groups with calcitriol or calcifediol alone, FIG. 1
Excerpt: In a commercial boiler feeding operation, five stalls each with approximate 43,000 animals were compared with regard to the incidence of osteochondrosis/dyschondroplasia in a field test. All the stalls were fed using conventional boiler fattening feed, distributed under the brand name GeflügelmastKorn® (Company: Garant Tiernahrung [Garant Animal Nutrition]), wherein no further additives were used in stall K1 (controls).
For stall K2 (control group calcitriol), a feed additive containing 20 ppm calcitriol in an amount of 150 ppm (based on feed with 88% dry solids) was mixed into the broiler fattening feed.
For stall K2 (control group calcifediol), a feed additive containing 200 ppm calcifediol in an amount of 150 ppm (based on feed with 88% dry solids) was mixed into the broiler fattening feed.
For stall V1 (experimental group with diurnoside plus calcitriol), the feed additive according to the invention, containing 100 ppm diurnoside and 10 ppm calcitriol was mixed into the boiler fattening feed in an amount of 150 ppm (based on feed with 88% dry solids).
For the stall V2 (experimental group with cestrumoside plus calcifediol), the feed additive according to the invention, containing 20 ppm cestrumoside and 100 ppm calcifediol in an amount of 150 ppm (based on feed with 88% dry solids) was mixed into the broiler fattening feed. […]

Compound	effective doses for calcitriol and calcifediol
C=C1CC[C@H](O)C/C1=C/C=C1\CCC[C@]2(C)[C@@H]([C@H](C)CCCC(C)(C)O)CC[C@@H]12 [calcifediol]	reduced by one-half
C=C1/C(=C\C=C2/CCC[C@]3(C)[C@@H]([C@H](C)CCCC(C)(C)O)CC[C@@H]23)C[C@@H](O)C[C@@H]1O [calcitriol]	reduced by one-half
